Measurements: patent US6692928B1, “Methods for identifying cardiovascular agents” (New England Medical Center Hospitals, Inc., priority 1996, dated 2004)
Like-named read-outs stand apart in the source and are kept apart here.

Tests used:
eNOS [1] = assay: eNOS activity in ovine pulmonary aortic endothelial cells (PAEC); type: cell-based; details: for basal eNOS activity: no E2
Description: (§1) Several molecular and pharmacologic interventions can disrupt this rapid ERα-eNOS signaling pathway.

MAP kinase = MAP kinase activity in PAEC; type: cell-based, ovine; details: 5 minute exposure, 10^−8M E2
Description: as §1

estrogen receptor = target: T1, estrogen receptor (Homo sapiens, UniProt P03372); assay: ERE-Luc reporter activation of the estrogen receptor in transfected cells; type: cell-based
T1 construct: expressed in transfected cells; host or cells: PVEC, HSVSMC, human aortic VSMC, HeLa (transient transfection)
T1 sequence (P03372 1-595): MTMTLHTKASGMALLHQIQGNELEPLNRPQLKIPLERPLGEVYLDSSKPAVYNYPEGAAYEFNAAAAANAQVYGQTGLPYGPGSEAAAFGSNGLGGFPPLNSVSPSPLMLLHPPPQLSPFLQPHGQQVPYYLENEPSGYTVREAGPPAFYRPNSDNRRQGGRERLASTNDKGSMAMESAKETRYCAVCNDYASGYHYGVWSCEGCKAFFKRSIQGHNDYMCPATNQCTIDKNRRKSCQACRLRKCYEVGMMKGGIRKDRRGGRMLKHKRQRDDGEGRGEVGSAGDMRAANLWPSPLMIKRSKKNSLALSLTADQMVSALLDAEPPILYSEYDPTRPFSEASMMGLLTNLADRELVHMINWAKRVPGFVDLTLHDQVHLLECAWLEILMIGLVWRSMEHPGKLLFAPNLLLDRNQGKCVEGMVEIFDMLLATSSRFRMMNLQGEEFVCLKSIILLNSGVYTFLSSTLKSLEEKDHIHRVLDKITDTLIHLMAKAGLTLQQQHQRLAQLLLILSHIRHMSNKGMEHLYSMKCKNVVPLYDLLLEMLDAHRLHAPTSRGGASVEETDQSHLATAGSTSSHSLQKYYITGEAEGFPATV
Procedure: The cells were then cultured for 48 hours in serum-free medium in the absence or presence of EGF (100 ng/ml).

human iNOS gene = assay: iNOS-luciferase reporter in rat cardiomyocytes; type: cell-based; details: 1 nM E2, 48 hours
Description: (§2) ER-regulation of two cardiac target genes, iNOS and eNOS, were studied in transient transfection experiments using either an iNOS-luciferase reporter plasmid (containing 1.1 Kb of the 5′-flanking region of the human iNOS gene driving expression of the luciferase cDNA) or an eNOS luciferase reporter plasmid (containing 1.6 Kb of the 5′ flanking region of the human eNOS gene driving expression of the luciferase cDNA). […] In these experiments, E2 increased the abundance of iNOS protein (50+/−23-fold; n=3; p<0.05) as well as eNOS protein (15.7+/−4.3 fold; n=3; p<0.05).

human eNOS gene = assay: eNOS luciferase reporter in rat cardiomyocytes; type: cell-based; details: 1 nM E2, 48 hours
Description: as §2

[2] = test system: endothelium-denuded aortic rings; assay: Mouse aortic vascular ring bioassay, phenylephrine-induced constriction; details: male mice
Description: An eight-chamber vascular ring bioassay system may be used to study vasomotion in vascular rings from mice. Vascular contraction and relaxation may be examined in endothelial-intact and endothelial-denuded mouse aortic vascular rings. […] The mouse aortic ring experiments may be carried out in rings from wild type, ERαKO and ERβKO animals.

vascular injury = assay: Mouse carotid injury model, L-NAME and eNOS knockout studies; type: in vivo, mice
Description: Two endpoints were routinely analyzed. First, computerized morphometrics were collected to examine the extent of vascular injury by quantitating medial area measurements. Second, BrdU labeling of VSMC and endothelial cells that proliferated following the injury was quantitated, which required extensive immunohistochemical staining for (i) BrdU, (ii) smooth muscle α-actin, and (iii) Factor VIII-related antigen (endothelial cells).
The studies may also be carried out in wild type mice and mice lacking ERα, ERβ, eNOS, iNOS, or nNOS, or in mice lacking a combination of these proteins. The level of NOS isoforms may be examined using isoform-specific antibodies.

pERE-Luc reporter = pERE-Luc reporter in GH3B6 cells; type: cell-based, rat; details: same conditions (estrogen 10^−6M, 48 hours)
PAEC = assay: Protein tyrosine phosphorylation in PAEC; type: cell-based
Procedure: An immortalized PAEC line retains the ER-eNOS activation pathway completely and provides a useful reagent for identifying other members of the pathway. Experiments indicate that a number of proteins are rapidly tyrosine phosphorylated following exposure of PAEC to estrogen. This occurs within 5-10 minutes and includes a series of low molecular weight proteins (15-40 Kd), as well as several larger proteins.

VEGF expression [3] = assay: pmVEGF-Luc reporter in WB572 cells; type: cell-based, human; details: estrogen 10^−6M, 48 hours
Description: (§3) One useful reporter construct is pmVEGF-Luc. In this reporter construct, a 1.6 kB fragment of genomic DNA located upstream of the murine vascular endothelial cell growth factor (VEGF) gene has been inserted into the pGL2-Basic luciferase reporter plasmid (Promega; Madison, Wis.). The 1.6 kB fragment includes the transcription start site, 1.2 kB of sequence upstream of the start site, and 0.4 kB of sequence downstream of the start site. Useful variants of this reporter plasmid can be made by deleting a portion of the murine VEGF control region. For example, pVEGF-Luc-Apa/Kpn is identical to pVEGF-luc except that 455 bp at the 5′ end of the 1.6 kB fragment have been removed; pVEGF-Luc-Mlu is identical to pVEGF-luc except that 768 bp at the 5′ end of the 1.6 kB fragment have been removed; and pVEGF-Luc-Sma is identical to pVEGF-luc except that 455 bp at the 5′ end of the 1.6 kB fragment have been removed. Similar reporter constructs can be created using upstream regulatory sequences from the human VEGF gene. For example, phVEGF-Luc is a reporter construct in which 5.1 kb genomic DNA upstream of the human VEGF coding sequence inserted into the pGL2-Basic luciferase reporter plasmid. This particular construct includes 3.4 kb of sequence upstream of the VEGF transcription start site and 1.7 kb untranslated sequence downstream of the transcription start site.

VEGF expression [4] = assay: VEGF expression in rat VSMC (A7r5 cells); type: cell-based
VEGF expression [5] = assay: pmVEGF-Luc reporter in GH3B6 cells; type: cell-based, rat; details: estrogen 10^−6M, 48 hours
Description: as §3

VEGF gene [6] = assay: VEGF-luciferase reporter, transiently transfected HSVSMC; type: cell-based, human; details: VEGF-luciferase + estrogen receptor α construct, 1 μM estrogen, n=12
Description: (§4) To study the role of estrogen on expression of the VEGF gene in vascular smooth muscle cells, human saphenous vein smooth muscle cells (HSVSMC) and HeLa cells were transiently transfected with a VEGF-luciferase reporter construct. In this reporter construct, expression of luciferase is under the control of a 1.2 kB fragment of the murine VEGF gene regulatory region. The cells were also transfected with an estrogen receptor α expression construct. All of the results described below have been normalized for transfection efficiency.

[7] = estrogen replacement therapy, by as much as; cited from earlier work
VEGF gene [8] = assay: VEGF-luciferase reporter, transiently transfected HeLa cells; type: cell-based
Description: as §4

vascular injury response = details: 14 days after carotid injury, physiologic levels
Description: Vascular medial are increases and smooth muscle cell proliferation were quantitated 14 days following cartoid injury in ovariectomized female mice treated with vehicle or physiologic levels of 17-β estradiol.

eNOS protein = eNOS protein level by immunoblotting; type: cell-based, rat; details: n=3
Description: as §2

eNOS [9] = assay: eNOS activity in transfected COS 7 cells; type: cell-based
Description: In contrast, ERα and eNOS coexpression had no effect on basal (unstimulated) eNOS activity (102+/−33% of activity in sham-transfected cells (ERα(−)).

iNOS protein = iNOS protein level by immunoblotting; type: cell-based, rat; details: n=3
Description: as §2

Compound: CC/C(=C(\c1ccccc1)c1ccc(OCCN(C)C)cc1)c1ccccc1 [tamoxifen]
- inhibition of acute eNOS response to E2 (eNOS [1]; PAEC): fully inhibited
- basal eNOS activity (eNOS [1]; PAEC): caused no change
- inhibition of E2-induced increase in MAP kinase activity (MAP kinase): completely inhibited

Compound: C[C@]12CC[C@@H]3c4ccc(O)cc4CC[C@H]3[C@@H]1CC[C@H]2O [17α-estradiol]
- eNOS activity (eNOS [1]; PAEC, 10^−12 to 10^−6M): had no effect

Compound: herbamycin A
- inhibition of acute eNOS response to E2 (eNOS [1]; PAEC): completely inhibit
- basal eNOS activity (eNOS [1]; PAEC): do not alter basal eNOS activity

Compound: COc1cccc(-c2cc(=O)c3ccccc3o2)c1N [PD98059]
- inhibition of acute eNOS response to E2 (eNOS [1]; PAEC): completely inhibit

Compound: EGF: epidermal growth factor
- effect on luciferase activity (estrogen receptor; HeLa cells, EGF 100 ng/ml, 48 hours, serum-free): no effect
- increase in luciferase activity (estrogen receptor; PVEC, HSVSMC and human aortic VSMC, EGF 100 ng/ml, 48 hours, serum-free): ~3 fold

Compound: O=c1c(-c2ccc(O)cc2)coc2cc(O)cc(O)c12 [genistein]
- inhibition of acute eNOS response to E2 (eNOS [1]; PAEC): completely inhibit
- basal eNOS activity (eNOS [1]; PAEC): do not alter basal eNOS activity

Compound: C[C@]12CC[C@@H]3c4ccc(O)cc4C[C@@H](CCCCCCCCC[S+]([O-])CCCC(F)(F)C(F)(F)F)[C@H]3[C@@H]1CC[C@@H]2O (stereo partly drawn) [ICI 182,780]
- inhibition of E2 activation of iNOS reporter (human iNOS gene): completely inhibited
- inhibition of E2 activation of eNOS reporter (human eNOS gene): blocked fully
- inhibition of acute eNOS response to E2 (eNOS [1]; PAEC): fully inhibited
- inhibition of the enhanced eNOS response (eNOS [1]; PAEC overexpressing ER): inhibited completely
- basal eNOS activity (eNOS [1]; PAEC): caused no change
- inhibition of E2-induced increase in MAP kinase activity (MAP kinase): completely inhibited

Compound: COC(=O)[C@@H](N)CCCNC(=N)N[N+](=O)[O-] [L-NAME]
- effect on the 17β estradiol inhibition of contraction [2]: reversed the inhibition
- effect on estrogen protection against vascular injury (medial area) (vascular injury; co-administration with estrogen, ovariectomized female mice): negated

Compound: estrogen
- activation of pERE-Luc reporter (pERE-Luc reporter): 8 fold
- time of protein tyrosine phosphorylation after exposure (PAEC): 5 to 10 min
- increase in luciferase activity (VEGF expression [3]): 1.8 fold
- activation of VEGF expression (VEGF expression [4]): did not activate VEGF expression
- effect on luciferase activity (VEGF expression [5]): no effect
- increase of luciferase expression (VEGF gene [6]): 1.7±0.2 fold
- reduction of the incidence of coronary artery disease [7]: 30-50%
- protection against injury (medial area endpoint) (vascular injury; eNOS KO mice, ovariectomized female): still able to protect against injury
- increase of luciferase expression (VEGF gene [8]; HeLa cells co-transfected with estrogen receptor α expression plasmid, n=21): 4.2±0.8 fold
- effect on luciferase expression (VEGF gene [8]; HeLa cells without estrogen receptor α, estrogen containing media): no effect

Compound: C[C@]12CC[C@@H]3c4ccc(O)cc4CC[C@H]3[C@@H]1CC[C@@H]2O [E2, 17β-estradiol]
- phenylephrine-induced constriction ([2]; chronic (18h) treatment): inhibited contraction
- increase of iNOS reporter activity (human iNOS gene; n=9): 8.1+/−0.02 fold
- increase of eNOS reporter activity (human eNOS gene; n=9): 6.9+/−0.06 fold
- eNOS activity (eNOS [1]; PAEC, E2 10^−8M): stimulates eNOS activity
- time to maximal eNOS stimulation (eNOS [1]; PAEC, E2 10^−8M): ≤ 5 min
- vascular injury measures (medial area increase, smooth muscle cell proliferation) (vascular injury response; estrogen receptor α knockout ovariectomized female mice): markedly inhibited all measures of vascular injury
- vascular injury measures (medial area increase, smooth muscle cell proliferation) (vascular injury response; wild-type ovariectomized female mice): markedly inhibited all measures of vascular injury
- MAP kinase activity (MAP kinase): causes an increase in MAP kinase activity
- increase in abundance of eNOS protein (eNOS protein): 15.7+/−4.3 fold
- eNOS activity (eNOS [9]; COS 7 cells transfected with eNOS alone): had no effect
- increase in eNOS activity (eNOS [9]; COS 7 cells transfected with eNOS and ERα, acute stimulation): > 3 fold
- increase in abundance of iNOS protein (iNOS protein): 50+/−23 fold

Compound: PDGF
- estrogen receptor activation (estrogen receptor; all cell types studied (PVEC, HSVSMC, human aortic VSMC, HeLa)): did not activate the estrogen receptor
